Assay results reported in patent US20250241902A1, “METHODS, COMPOSITIONS AND SYSTEMS FOR EVALUATION OF VISUAL FUNCTION” (BELITE BIO, INC, priority 2022, published 2025).
Where “and” joins values, the source holds several entries; their conditions need not be identical. Identical values can stand only once.

Columns and labels:
Format in all cases: in vivo, human
[1] = tested on: adolescent STGD1 patients; experiment: Clinical study: best corrected visual acuity (BCVA) test
Source text: In some embodiments, visual acuity may be evaluated with a logarithm of the minimum angle of resolution chart (log MAR chart). A log MAR chart comprises rows of letters that are used to estimate visual acuity. Zero log MAR may indicate standard vision, positive values may indicate poor vision and negative values may indicate good vision. In some embodiments, the best corrected visual acuity (BCVA) early treatment diabetic retinopathy study (ETDRS) letters score can be calculated with the following formula: […]
(§1) The therapeutic effect of a compound of Formula (I), also known as Tinlarebant, was evaluated in a group of individuals with adolescent STGD. The treatment covered Phase 1b and Phase 2. Phase 1b included a 4-week treatment and a 14-day follow-up. Phase 2 included a 2-year treatment and 1-month follow-up. A total of 13 individuals received the treatment: 5 males and 8 females. All 13 individuals had STGD 1 aged 12-18 years old. All 13 individuals received the treatment of a compound of Formula (I), a RBP4 inhibitor.
(§2) The clinical study evaluated ocular and systemic safety and tolerability of the compound and determined the optimal dose, pharmacokinetics (PK), and […]. The study measured visual improvement by best corrected visual acuity (BCVA) test, self-reported visual questionnaire test, the change in lesion size by FAF, the change in retinal thickness and morphology by SD-OCT, the change in retinal sensitivity by microperimetry, and the change in quantitative AF. In addition, this study evaluated correlation between reduction in RBP4 and rate of lesion growth including change in autofluorescence.

[2] = tested on: adolescent STGD1 patients; experiment: Clinical study: quantitative autofluorescence (qAF)
Source text: In some embodiments, a method for measuring quantitative autofluorescence (qAF) is used or evaluation of ocular disease or visual function. In some embodiments, the qAF method may incorporate an internal fluorescent reference to account for variable laser power and detector sensitivity. In some embodiments, an intensity of AF may be calculated against the calibrated internal fluorescence reference standard in the optical pathway.
as §1, §2

[3] = tested on: adolescent STGD1 patients; experiment: Clinical study: ellipsoid zone (EZ) defect width by SD-OCT
Source text: (§3) In some embodiments, spectral domain-optical coherence tomography (SD-OCT) is used for evaluation of ocular disease or visual function. In some embodiments, SD-OCT provides in vivo cross-sectional and […] visualization of the retina and the RPE. In some embodiments, SD-OCT is used to detect the presence of RPE atrophy. In some embodiments, SD-OCT is used to evaluate ellipsoid zone (EZ) defect width. In some embodiments, the EZ line provides information on the integrity of the photoreceptors. In some embodiments, the EZ line provides useful information in early disease. In some embodiments, an image of SD-OCT is used to evaluate the central subfield retina thickness (CST). In some embodiments, an image of SD-OCT is used to evaluate the middle subfield retina thickness (MST). In some embodiments, an image of SD-OCT is used to evaluate the outer subfield retina thickness (OST). The therapeutic effect of a compound of Formula (I), also known as Tinlarebant, was evaluated in a group of individuals with adolescent STGD. The treatment covered Phase 1b and Phase 2. Phase 1b included a 4-week treatment and a 14-day follow-up. Phase 2 included a 2-year treatment and 1-month follow-up. A total of 13 individuals received the treatment: 5 males and 8 females. All 13 individuals had STGD 1 aged 12-18 years old. All 13 individuals received the treatment of a compound of Formula (I), a RBP4 inhibitor. The clinical study evaluated ocular and systemic safety and tolerability of the compound and determined the optimal dose, pharmacokinetics (PK), and […]. The study measured visual improvement by best corrected visual acuity (BCVA) test, self-reported visual questionnaire test, the change in lesion size by FAF, the change in retinal thickness and morphology by SD-OCT, the change in retinal sensitivity by microperimetry, and the change in quantitative AF. In addition, this study evaluated correlation between reduction in RBP4 and rate of lesion growth including change in autofluorescence.

[4] = tested on: adolescent STGD1 patients; experiment: Clinical study: retinal thickness by SD-OCT (CST, MST, OST)
Source text: as §3

[5] = tested on: adolescent STGD1 patients; experiment: Clinical study: lesion size by fundus autofluorescence (FAF; DDAF/QDAF); settings: for FAF lesion area: subject 3, right eye
Source text: Fundus autofluorescence (FAF) imaging is used as an endpoint in clinical trials. FAF is used to detect lesion growth with more than one timepoint of measurements. The change in lesion area measured by FAF can be plotted against time to calculate lesion growth rate, e.g., how fast or slow a patient's macula or retina is degenerating as compared to placebo. FAF imaging is used to compare the rate of anatomical or structural deterioration or change to evaluate a drug or treatment's therapeutic effect, e.g., reduced worsening of the retina degeneration.
In some embodiments, fundus autofluorescence (FAF) is used for evaluation of ocular disease or visual function. In some embodiments, one or more retina images of FAF is used for detection of atrophic areas. In some embodiments, one or more retina images of FAF is used to gain detailed insight into the health of the retinal pigment epithelium (RPE). In some embodiments, one or more images of FAF may be high-contrast retina images. In some embodiments, two types of decreased autofluorescence (DAF) may be quantified. In some embodiments, one type of DAF may be definite DAF (DDAF) which includes an area having a level of darkness being defined as qualitatively definite. In some embodiments, the other type of DAF may be questionable DAF (QDAF) which includes an area having a level of darkness being defined as qualitatively questionable. In some embodiments, the size of decreased autofluorescence (DAF) lesion may be the sum of all DDAF and QDAF. In some embodiments, DAF may be expressed as an area in square millimeters (mm^2).
as §1, §2

[6] = tested on: adolescent STGD1 patients; experiment: Clinical study (Phase 1b/2): ocular and systemic safety and tolerability
Method: as §1, §2
In addition, the treatment was able to maintain 80%-90% RBP4 reduction from baseline throughout the study. All patients received at least 7 months of the treatment. […] Delayed dark adaptation, night vision impairment, and xanthopsia/chromatopsia were the only drug related ophthalmic adverse events.

[7] = subject 3, left eye, phase 2 baseline
[8] = subject 3, left eye, phase 2 month 6
[9] = subject 11, both eyes, phase 2 week 1 vs week 9
[10] = subject 4, left eye, phase 2 baseline
[11] = subject 4, left eye, phase 2 month 6

CC(=O)N1CCc2c(C(=O)N3CCC(c4ccc(F)c(F)c4C(F)(F)F)CC3)n[nH]c2C1 [Tinlarebant]
patients with visual improvement in at least one eye (BCVA) ([1]; cohort of 13): 8 out of the 13 | patients with visual improvement in both eyes (BCVA) ([1]; cohort of 13): 2 patients | visual improvement, summary ([1]; cohort, approximately 7 months): Majority of the patients showed visual improvement in at least one eye | BCVA average letters of gain ([1]; left eye, cohort): 1.9±1.32 letters | BCVA average letters of loss ([1]; right eye, cohort): −2.8±1.85 letters | BCVA ETDRS letters gained ([1]; subject 4, both eyes): 3 ETDRS letters | BCVA letters ([1]; subject 4, both eyes, intermediate value in 7-month treatment period): 50 letters | BCVA letters ([1]; subject 4, both eyes, last value in 7-month treatment period): 53 letters | BCVA letters ([1]; subject 4, both eyes, start of 7-month treatment period): 45 letters | BCVA letters gained ([1]; subject 10, both eyes, approximately 7-month treatment): 9 letters | BCVA letters gained ([1]; subject 11, left eye): 6 letters | BCVA change ([1]; subject 11, right eye): no change | autofluorescence (AF) based on quantitative AF ([2]; subject 3, both eyes, especially left, phase 2 week 1 vs week 9): decrease | qDAF value [2, 7]: 351 | qDAF value [2, 8]: 268 | qDAF value ([2]; subject 3, right eye, phase 2 baseline): 335 | qDAF value ([2]; subject 3, right eye, phase 2 month 6): 275 | patients with improvement in EZ defect width (narrowing) in at least one eye ([3]; cohort): 5 patients | patients with improvement in EZ defect width in both eyes ([3]; cohort): 3 patients | EZ defect width, trend ([3]; cohort, summary): trend in reducing EZ defect width | EZ defect width average increase ([3]; left eye, cohort): 0.48±0.26 mm | EZ defect width average increase ([3]; right eye, cohort): 0.39±0.27 mm | ellipsoid zone (EZ) width change ([3]; subject 3, especially left eye, phase 2 week 1 vs week 9): decreased in both eyes | EZ defect width reduction ([3]; subject 3, left eye): 0.20 mm | EZ defect width [3, 7]: 2.91 mm | EZ defect width [3, 8]: 2.71 mm | EZ defect width reduction ([3]; subject 3, right eye): 0.13 mm | EZ defect width ([3]; subject 4, right eye, Phase 2 Baseline): 1.79 mm | EZ defect width ([3]; subject 4, right eye, Phase 2 Month 6): 1.85 mm | EZ defect width reduction ([3]; subject 6, left eye): 0.22 mm | EZ defect width reduction ([3]; subject 6, right eye): 0.27 mm | EZ width change [3, 9]: stabilized | EZ defect width ([3]; subject 11, left eye, Phase 2 Baseline): 2.20 mm | EZ defect width ([3]; subject 11, left eye, Phase 2 Month 6): 2.29 mm | patients with improvement (increase in thickness) or no change in OST in both eyes ([4]; cohort): 4 patients | patients with no change or growth in MST in at least one eye ([4]; cohort): 5 patients | patients with no to little change in CST in at least one eye ([4]; cohort): 5 patients | CST change, Left Eye (mean ± SD, μm) ([4]; cohort means, Table 4): −8.83 ± 1.91 μm | CST change, Right Eye (mean ± SD, μm) ([4]; cohort means, Table 4): −10.15 ± 1.5 μm | MST change, Left Eye (mean ± SD, μm) ([4]; cohort means, Table 4): −7.92 ± 2.13 μm | MST change, Right Eye (mean ± SD, μm) ([4]; cohort means, Table 4): −6.77 ± 1.74 μm | OST change, Left Eye (mean ± SD, μm) ([4]; cohort means, Table 4): −7.60 ± 2.62 μm | OST change, Right Eye (mean ± SD, μm) ([4]; cohort means, Table 4): −8.08 ± 2.47 μm | CST average thinning ([4]; left eye, cohort): 7.6±2.14 microns | MST average thinning ([4]; left eye, cohort): 7.2±2.54 microns | OST average thinning ([4]; left eye, cohort): 3.11±3.5 microns | CST average thinning ([4]; right eye, cohort): 10.27±2.2 microns | MST average thinning ([4]; right eye, cohort): 6.27±2.03 microns | OST average thinning ([4]; right eye, cohort): 3.8±3.08 microns | average thickness: center [4, 7]: 97 micron | average thickness: central max [4, 7]: 202 micron | average thickness: central min [4, 7]: 97 micron | average thickness: marker [4, 7]: 97 micron | average thickness: center [4, 8]: 112 micron | average thickness: central max [4, 8]: 216 micron | average thickness: central min [4, 8]: 104 micron | average thickness: marker [4, 8]: 112 micron | change in CST, MST, or OST ([4]; subject 3, overall): little to no change | change of OST ([4]; subject 4, both eyes, especially left, phase 2 week 1 vs week 9): increase | change of MST ([4]; subject 4, either eye, phase 2 week 1 vs week 9): little to no change | average thickness: center [4, 10]: 63 micron | average thickness: central max [4, 10]: 218 micron | average thickness: central min [4, 10]: 57 micron | average thickness: marker [4, 10]: 60 micron | average thickness: center [4, 11]: 58 micron | average thickness: central max [4, 11]: 199 micron | average thickness: central min [4, 11]: 54 micron | average thickness: marker [4, 11]: 56 micron | retinal thickness growth (stated after OST) ([4]; subject 11, both eyes (one value per eye, eye not assigned)): 15 microns and 16 microns | change of OST [4, 9]: increase | change of CST or MST ([4]; subject 11, either eye, phase 2 week 1 vs week 9): little to no change | autofluorescence expansion (FAF), trend ([5]; cohort): trend of preventing or slowing autofluorescence expansion | patients who maintained no DDAF lesion growth ([5]; cohort): 12 of the 13 | patients with no change or reduction in QDAF area in one or both eyes ([5]; cohort): 6 of 11 | autofluorescence expansion (FAF), trend ([5]; cohort, listed as compound of Formula (I)): trend in preventing or slowing autofluorescence expansion | average change in QDAF area ([5]; left eye, cohort): 0.1±0.11 mm^2 | average change in QDAF area ([5]; right eye, cohort): 0.3±0.11 mm^2 | area size of QDAF ([5]; subject 3, either eye, phase 2 week 1 vs week 9): no increase | FAF lesion area ([5]; phase 2 baseline): 2.7 mm^2 | FAF lesion area ([5]; phase 2 month 6): 2.7 mm^2 | QDAF in size ([5]; subject 4, left eye, Phase 2 Baseline vs Month 6 (FIG. 2A)): stabilization | QDAF in size ([5]; subject 4, left or right eye, phase 2 week 1 vs week 9): no increase | QDAF/DDAF change [5, 9]: transition of QDAF to DDAF | safety and tolerability ([6]; 5 mg daily, adolescent STGD1 patients): safe and well tolerated | adverse events requiring discontinuation of treatment ([6]; 13 patients): no adverse events required discontinuation of treatment | vital signs, physical exams, electrocardiogram (ECG), organ functions ([6]; 13 patients): No clinical significant findings | severe adverse events ([6]; 13 patients, at least 7 months of treatment): No severe adverse events | safety and tolerability ([6]; after approximately 7 months of treatment (1 month Phase 1b, 6 months Phase 2)): safe and well tolerated | severity of delayed dark adaptation, night vision impairment, xanthopsia/chromatopsia (drug related ophthalmic adverse events) ([6]; all instances, 13 patients): mild and transient | symptoms in patients with delayed dark adaptation ([6]; human, in vivo): mostly asymptomatic | Delayed Dark Adaptation: Frequency (subject) ([6]; related adverse event): 8/13 | Night Vision Impairment: % Recovered ([6]; related adverse event): 0/1 | Night Vision Impairment: Frequency (subject) ([6]; related adverse event): 1/13 | Xanthopsia/Chromatopsia: Frequency (subject) ([6]; related adverse event): 9/13
